Test results published in PubChem BioAssay AID651630 (Sanford-Burnham Center for Chemical Genomics, 2012).
Calls of active or inactive are those of the source.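 How the source made its calls: active means lipid-stain IC50 at or below a set limit, with nuclear-stain toxicity IC50 at least five times higher; inactive means the rest.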

What was measured:
[1] = system: DAPI; test: TAG lipid buildup inhibition with viability readout – cell-based, panel, Nile Red and DAPI fluorescence, H9c2, dose response (AID 651630); conditions: H9c2 cells, DAPI nuclear fluorescence (cytotoxicity counter-readout), oleic acid;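 further: cells exposed to compound overnight before fixation and staining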
[2] = system: TAG; test: as above; conditions: H9c2 cells, Nile Red TAG fluorescence, oleic acid

In the case of `Cn1nnc2c[n+](CC(=O)c3ccc(Cl)cc3)cc(Br)c21`, the IC50 cytotoxicity (DAPI nuclear signal decrease) ([1]; mean of runs) is reported as 21.5 µM (inactive), the IC50 cytotoxicity (DAPI nuclear signal decrease) ([1]; run 1) is reported as 20.9 µM and the IC50 cytotoxicity (DAPI nuclear signal decrease) ([1]; run 2) is reported as 22.1 µM. The IC50 ([2]; mean of runs) was 13.5 µM, the IC50 ([2]; run 1) was 13.9 µM and the IC50 ([2]; run 2) was 13.2 µM.
`c1ccc(Oc2nc(-c3ccccn3)nc3ccccc23)cc1` was tested, and the IC50 cytotoxicity (DAPI nuclear signal decrease) ([1]; mean of runs) was > 25 µM (inactive), the IC50 cytotoxicity (DAPI nuclear signal decrease) ([1]; run 1) was > 25 µM and the IC50 cytotoxicity (DAPI nuclear signal decrease) ([1]; run 2) was > 25 µM. For the same compound, the IC50 ([2]; mean of runs) was > 25 µM (inactive), the IC50 ([2]; run 1) was > 25 µM and the IC50 ([2]; run 2) was > 25 µM.
With `O=C(N/N=C/c1cn(-c2ccccc2)nc1-c1cc2ccccc2o1)c1c[nH]c2ccccc12` the IC50 cytotoxicity (DAPI nuclear signal decrease) ([1]; mean of runs) was > 25 µM (inactive), the IC50 cytotoxicity (DAPI nuclear signal decrease) ([1]; run 1) was > 25 µM and the IC50 cytotoxicity (DAPI nuclear signal decrease) ([1]; run 2) was > 25 µM. The IC50 ([2]; mean of runs) was 13.1 µM, the IC50 ([2]; run 1) was 14.7 µM and the IC50 ([2]; run 2) was 11.5 µM.
`C[C@H]1CN([C@@H](C)CO)C(=O)c2cc(NC(=O)Nc3cccc4ccccc34)ccc2O[C@@H]1CN(C)Cc1ccc(-c2ccccc2)cc1` was tested, and the IC50 cytotoxicity (DAPI nuclear signal decrease) ([1]; mean of runs) was > 25 µM (inactive), the IC50 cytotoxicity (DAPI nuclear signal decrease) ([1]; run 1) was > 25 µM and the IC50 cytotoxicity (DAPI nuclear signal decrease) ([1]; run 2) was > 25 µM. The IC50 ([2]; run 1) was 20.2 µM and the IC50 ([2]; run 2) was > 25 µM.
For `O=C1C(NS(=O)(=O)c2cccs2)=C(N2CCN(c3cccc(C(F)(F)F)c3)CC2)C(=O)c2ccccc21`, the IC50 cytotoxicity (DAPI nuclear signal decrease) ([1]; mean of runs) was > 25 µM (inactive), the IC50 cytotoxicity (DAPI nuclear signal decrease) ([1]; run 1) was > 25 µM and the IC50 cytotoxicity (DAPI nuclear signal decrease) ([1]; run 2) was > 25 µM. For the same compound, the IC50 ([2]; mean of runs) was 5.88 µM, the IC50 ([2]; run 1) was 7.01 µM and the IC50 ([2]; run 2) was 4.75 µM.
In the case of `CCc1ccc(-c2nc(C(N)=O)c3[nH]c(=O)n(-c4ccccc4OC)c3n2)cc1`, the IC50 cytotoxicity (DAPI nuclear signal decrease) ([1]; run 1) is reported as > 25 µM, the IC50 cytotoxicity (DAPI nuclear signal decrease) ([1]; run 2) is reported as > 25 µM and the IC50 ([2]; mean of runs) is reported as 2.73 µM. For the same compound, the IC50 ([2]; run 1) was 2.74 µM and the IC50 ([2]; run 2) was 2.71 µM.
For `CCCN(CCC)CCNC(=O)c1cc2c(=O)n(CC)c3ccccc3c2s1`, the IC50 cytotoxicity (DAPI nuclear signal decrease) ([1]; mean of runs) was > 25 µM (inactive), the IC50 cytotoxicity (DAPI nuclear signal decrease) ([1]; run 1) was > 25 µM and the IC50 cytotoxicity (DAPI nuclear signal decrease) ([1]; run 2) was > 25 µM. For the same compound, the IC50 ([2]; mean of runs) was > 25 µM (inactive), the IC50 ([2]; run 1) was > 25 µM and the IC50 ([2]; run 2) was > 25 µM.
In the case of `CCOc1ccc(NC(=O)CN(C)C(=O)c2cc(-c3ccc(OC)cc3)nc3ccccc23)cc1OCC`, the IC50 cytotoxicity (DAPI nuclear signal decrease) ([1]; mean of runs) is reported as > 25 µM (inactive), the IC50 cytotoxicity (DAPI nuclear signal decrease) ([1]; run 1) is reported as > 25 µM and the IC50 cytotoxicity (DAPI nuclear signal decrease) ([1]; run 2) is reported as > 25 µM. It also gave an IC50 ([2]; mean of runs) of 10.1 µM, an IC50 ([2]; run 1) of 9.04 µM and an IC50 ([2]; run 2) of 11.1 µM.
For `CC(C)(C)NC(=O)C(c1ccc(-c2ccccc2)cc1)N(C[C@H]1CC[C@@H]([C@@H]2CC[C@H](CO)O2)O1)C(=O)c1ccc2ccccc2c1` (some centres not stated), the IC50 cytotoxicity (DAPI nuclear signal decrease) ([1]; mean of runs) was > 25 µM (inactive), the IC50 cytotoxicity (DAPI nuclear signal decrease) ([1]; run 1) was > 25 µM and the IC50 cytotoxicity (DAPI nuclear signal decrease) ([1]; run 2) was > 25 µM. For the same compound, the IC50 ([2]; mean of runs) was 5.56 µM, the IC50 ([2]; run 1) was 4.96 µM and the IC50 ([2]; run 2) was 6.16 µM.
In the case of `COc1cccc(C2c3c(C)nn(-c4ccc([N+](=O)[O-])cc4)c3N=C3C(=O)Nc4ccccc4N32)c1` (configuration not stated), the IC50 cytotoxicity (DAPI nuclear signal decrease) ([1]; mean of runs) is reported as > 25 µM (inactive), the IC50 cytotoxicity (DAPI nuclear signal decrease) ([1]; run 1) is reported as > 25 µM and the IC50 cytotoxicity (DAPI nuclear signal decrease) ([1]; run 2) is reported as > 25 µM. For the same compound, the IC50 ([2]; mean of runs) was 7.79 µM, the IC50 ([2]; run 1) was 7.32 µM and the IC50 ([2]; run 2) was 8.26 µM.
With `Cc1ccc(-n2nc(C)c3c(C)c(CCC(=O)Nc4ccc(CN5CCCC5)cc4)c(C)nc32)cc1` the IC50 cytotoxicity (DAPI nuclear signal decrease) ([1]; mean of runs) was > 25 µM (inactive), the IC50 cytotoxicity (DAPI nuclear signal decrease) ([1]; run 1) was > 25 µM and the IC50 cytotoxicity (DAPI nuclear signal decrease) ([1]; run 2) was > 25 µM. The IC50 ([2]; run 1) was 20.6 µM and the IC50 ([2]; run 2) was > 25 µM.
In the case of `COc1ccc(N=C2C(=Nc3ccc(OC)cc3)N(c3ccc(OC)cc3)C(=S)N2C(=O)c2ccc(OC)cc2)cc1`, the IC50 cytotoxicity (DAPI nuclear signal decrease) ([1]; run 1) is reported as > 25 µM, the IC50 cytotoxicity (DAPI nuclear signal decrease) ([1]; run 2) is reported as > 25 µM and the IC50 ([2]; mean of runs) is reported as < 0.78 µM. For the same compound, the IC50 ([2]; run 1) was < 0.78 µM and the IC50 ([2]; run 2) was < 0.78 µM.
With `COc1ccc(-c2nc3ccc(Cl)cn3c2NC2CCCCC2)cc1SC1CCCCC1` the IC50 cytotoxicity (DAPI nuclear signal decrease) ([1]; run 1) was > 25 µM, the IC50 cytotoxicity (DAPI nuclear signal decrease) ([1]; run 2) was > 25 µM and the IC50 ([2]; mean of runs) was 3.44 µM. For the same compound, the IC50 ([2]; run 1) was 2.41 µM and the IC50 ([2]; run 2) was 4.47 µM.
With `O=C(CSc1cccc2cccnc12)Nc1ccc(S(=O)(=O)N2CCOCC2)cc1` the IC50 cytotoxicity (DAPI nuclear signal decrease) ([1]; mean of runs) was > 25 µM (inactive), the IC50 cytotoxicity (DAPI nuclear signal decrease) ([1]; run 1) was > 25 µM and the IC50 cytotoxicity (DAPI nuclear signal decrease) ([1]; run 2) was > 25 µM. The IC50 ([2]; mean of runs) was > 25 µM (inactive), the IC50 ([2]; run 1) was > 25 µM and the IC50 ([2]; run 2) was > 25 µM.
`COc1ccc(-c2cc(C(F)F)n3ncc(C(=O)Nc4cccc(S(=O)(=O)N5CCOCC5)c4)c3n2)cc1` was tested, and the IC50 cytotoxicity (DAPI nuclear signal decrease) ([1]; mean of runs) was > 25 µM (inactive), the IC50 cytotoxicity (DAPI nuclear signal decrease) ([1]; run 1) was > 25 µM and the IC50 cytotoxicity (DAPI nuclear signal decrease) ([1]; run 2) was > 25 µM. For the same compound, the IC50 ([2]; mean of runs) was 13.9 µM, the IC50 ([2]; run 1) was 17.5 µM and the IC50 ([2]; run 2) was 10.4 µM.
`Cc1nn2c(N3CCN(C)CC3)c3c(nc2c1-c1ccccc1)CCCC3` was tested, and the IC50 cytotoxicity (DAPI nuclear signal decrease) ([1]; mean of runs) was > 25 µM (inactive), the IC50 cytotoxicity (DAPI nuclear signal decrease) ([1]; run 1) was > 25 µM and the IC50 cytotoxicity (DAPI nuclear signal decrease) ([1]; run 2) was > 25 µM. For the same compound, the IC50 ([2]; mean of runs) was > 25 µM (inactive), the IC50 ([2]; run 1) was > 25 µM and the IC50 ([2]; run 2) was > 25 µM.
`COc1cc2c(c(OC)c1OC)-c1ccc(O)cc1C(NC(C)=O)CC2` (configuration not stated) was tested, and the IC50 cytotoxicity (DAPI nuclear signal decrease) ([1]; mean of runs) was > 25 µM (inactive), the IC50 cytotoxicity (DAPI nuclear signal decrease) ([1]; run 1) was > 25 µM and the IC50 cytotoxicity (DAPI nuclear signal decrease) ([1]; run 2) was > 25 µM. For the same compound, the IC50 ([2]; mean of runs) was > 25 µM (inactive), the IC50 ([2]; run 1) was > 25 µM and the IC50 ([2]; run 2) was > 25 µM.
